{"source": "patent US20160089348A1", "about": "“USE OF AN S1P RECEPTOR AGONIST” (priority 2009, published 2016)", "key": {"[1]": {"system": "patients with relapsing-remitting MS (RRMS)", "assay": "MRI lesion measures (Gd-enhancing, T2, T1 hypointense lesions) in clinical study of daily oral fingolimod vs placebo", "type": "in vivo, human", "conditions": "for T1 hypointense lesion volume, months 0-24 - % change, Mean ± SD / T1 hypointense lesion volume, months 0-24 - % change, Median (range) / T2 lesion volume, months 0-24 - % change, Mean ± SD / T2 lesion volume, months 0-24 - % change, Median (range) / Patients free from new or enlarged T2 lesions, months 0-24 - (%) / Patients free from new or enlarged T2 lesions, months 0-24 - no.: RRMS patients", "procedure": "Annualized relapse rate (ARR) over 24 months (primary endpoint) and time to disability progression (key secondary endpoint) is assessed in patients with relapsing-remitting MS (RRMS). Patients aged 18-55 years with an Expanded Disability Status Scale score 0-5.5, relapse in the previous year (or ≧2 in the previous 2 years) are randomized to daily oral fingolimod 1.25 mg or 0.5 mg, or placebo. […] The brain volume changes for months 0 to 12 is measured using SIENA software."}, "[2]": {"system": "patients with relapsing-remitting MS (RRMS)", "assay": "Brain volume change (brain atrophy) by MRI using SIENA software in clinical study of daily oral fingolimod vs placebo", "type": "in vivo, human", "conditions": "for Brain volume, Percent change from Month 12 to Month 24, Mean (SD) / Brain volume, Percent change from Month 12 to Month 24, Median / Brain volume, Percent change from baseline to Month 24, Mean (SD) / Brain volume, Percent change from baseline to Month 24, Median / Brain volume, Percent change from baseline to Month 12, Mean (SD) / Brain volume, Percent change from baseline to Month 12, Median / Brain volume, Percent change from baseline to Month 6, Mean (SD) / Brain volume, Percent change from baseline to Month 6, Median: RRMS patients", "procedure": "Annualized relapse rate (ARR) over 24 months (primary endpoint) and time to disability progression (key secondary endpoint) is assessed in patients with relapsing-remitting MS (RRMS). Patients aged 18-55 years with an Expanded Disability Status Scale score 0-5.5, relapse in the previous year (or ≧2 in the previous 2 years) are randomized to daily oral fingolimod 1.25 mg or 0.5 mg, or placebo. […]"}, "[3]": {"conditions": "fingolimod 0.5 mg daily oral, N = 346 with MRI data"}, "[4]": {"conditions": "fingolimod 0.5 mg daily oral, N = 368 with MRI data"}, "[5]": {"conditions": "fingolimod 0.5 mg daily oral, N = 425"}, "[6]": {"conditions": "fingolimod 1.25 mg daily oral, N = 317 with MRI data"}, "[7]": {"conditions": "fingolimod 1.25 mg daily oral, N = 343 with MRI data"}, "[8]": {"conditions": "fingolimod 1.25 mg daily oral, N = 429"}, "[9]": {"conditions": "both fingolimod groups (1.25 mg, 0.5 mg), at 6, 12 and 24 months"}, "[10]": {"conditions": "FTY720 0.5 mg daily oral, n 356"}, "[11]": {"conditions": "FTY720 0.5 mg daily oral, n 357"}, "[12]": {"conditions": "FTY720 0.5 mg daily oral, n 383"}, "[13]": {"conditions": "FTY720 0.5 mg daily oral, n 395"}, "[14]": {"conditions": "FTY720 1.25 mg daily oral, n 327"}, "[15]": {"conditions": "FTY720 1.25 mg daily oral, n 334"}, "[16]": {"conditions": "FTY720 1.25 mg daily oral, n 371"}, "[17]": {"conditions": "FTY720 1.25 mg daily oral, n 384"}, "[18]": {"conditions": "fingolimod-treated patients, baseline to month 24"}}, "data": [{"smiles": "CCCCCCCCc1ccc(CCC(N)(CO)CO)cc1.Cl", "note": "[fingolimod, 2-amino-2-[2-(4-octylphenyl)ethyl]propane-1,3-diol]", "values": [{"measurement": "T1 hypointense lesion volume, months 0-24 - % change, Mean ± SD", "setting": "[1]; [3]", "value": "8.8 ± 76.27", "unit": "%"}, {"measurement": "T1 hypointense lesion volume, months 0-24 - % change, Median (range)", "setting": "[1]; [3]", "value": "0.00 (−100.0-1037.1) %"}, {"measurement": "T2 lesion volume, months 0-24 - % change, Mean ± SD", "setting": "[1]; [4]", "value": "10.6 ± 103.46", "unit": "%"}, {"measurement": "T2 lesion volume, months 0-24 - % change, Median (range)", "setting": "[1]; [4]", "value": "−1.69 (−100.0-1828.5) %"}, {"measurement": "Patients free from new or enlarged T2 lesions, months 0-24 - (%)", "setting": "[1]; [5]", "value": 50.5, "unit": "%"}, {"measurement": "Patients free from new or enlarged T2 lesions, months 0-24 - no.", "setting": "[1]; [5]", "value": 187}, {"measurement": "T1 hypointense lesion volume, months 0-24 - % change, Mean ± SD", "setting": "[1]; [6]", "value": "12.2 ± 85.49", "unit": "%"}, {"measurement": "T1 hypointense lesion volume, months 0-24 - % change, Median (range)", "setting": "[1]; [6]", "value": "−0.20 (−100.0-888.4) %"}, {"measurement": "T2 lesion volume, months 0-24 - % change, Mean ± SD", "setting": "[1]; [7]", "value": "1.6 ± 30.71", "unit": "%"}, {"measurement": "T2 lesion volume, months 0-24 - % change, Median (range)", "setting": "[1]; [7]", "value": "−3.10 (−68.2-221.5) %"}, {"measurement": "Patients free from new or enlarged T2 lesions, months 0-24 - (%)", "setting": "[1]; [8]", "value": 51.9, "unit": "%"}, {"measurement": "Patients free from new or enlarged T2 lesions, months 0-24 - no.", "setting": "[1]; [8]", "value": 175}, {"measurement": "Proportions of patients free from new or enlarged T2 lesions versus placebo", "setting": "[1]; both fingolimod doses, over 24 months", "value": "greater proportions of patients are free from these lesions"}, {"measurement": "Gd-enhancing lesions versus placebo group", "setting": "[1]; [9]", "value": "significantly fewer Gd-enhancing lesions than those in the placebo group"}, {"measurement": "Patients free from Gd-enhancing lesions versus placebo", "setting": "[1]; [9]", "value": "proportionately more patients are free from Gd-enhancing lesions"}, {"measurement": "New or enlarged T2 lesions versus placebo", "setting": "[1]; fingolimod 0.5 mg or 1.25 mg, over 24 months", "value": "Fewer new or enlarged T2 lesions"}, {"measurement": "Volume of T2 lesions, change from baseline to month 24", "setting": "[1]; fingolimod-treated patients, increases with placebo", "value": "decreases"}, {"measurement": "Brain volume, Percent change from Month 12 to Month 24, Mean (SD)", "setting": "[2]; [10]", "value": "−0.370 (0.8073) %"}, {"measurement": "Brain volume, Percent change from Month 12 to Month 24, Median", "setting": "[2]; [10]", "value": "−0.340", "unit": "%"}, {"measurement": "Brain volume, Percent change from baseline to Month 24, Mean (SD)", "setting": "[2]; [11]", "value": "−0.843 (1.3120) %"}, {"measurement": "Brain volume, Percent change from baseline to Month 24, Median", "setting": "[2]; [11]", "value": "−0.670", "unit": "%"}, {"measurement": "Brain volume, Percent change from baseline to Month 12, Mean (SD)", "setting": "[2]; [12]", "value": "−0.500 (1.0509) %"}, {"measurement": "Brain volume, Percent change from baseline to Month 12, Median", "setting": "[2]; [12]", "value": "−0.380", "unit": "%"}, {"measurement": "Brain volume, Percent change from baseline to Month 6, Mean (SD)", "setting": "[2]; [13]", "value": "−0.224 (0.8131) %"}, {"measurement": "Brain volume, Percent change from baseline to Month 6, Median", "setting": "[2]; [13]", "value": "−0.140", "unit": "%"}, {"measurement": "Brain volume, Percent change from Month 12 to Month 24, Mean (SD)", "setting": "[2]; [14]", "value": "−0.423 (0.8284) %"}, {"measurement": "Brain volume, Percent change from Month 12 to Month 24, Median", "setting": "[2]; [14]", "value": "−0.380", "unit": "%"}, {"measurement": "Brain volume, Percent change from baseline to Month 24, Mean (SD)", "setting": "[2]; [15]", "value": "−0.885 (1.3857) %"}, {"measurement": "Brain volume, Percent change from baseline to Month 24, Median", "setting": "[2]; [15]", "value": "−0.700", "unit": "%"}, {"measurement": "Brain volume, Percent change from baseline to Month 12, Mean (SD)", "setting": "[2]; [16]", "value": "−0.438 (1.0792) %"}, {"measurement": "Brain volume, Percent change from baseline to Month 12, Median", "setting": "[2]; [16]", "value": "−0.300", "unit": "%"}, {"measurement": "Brain volume, Percent change from baseline to Month 6, Mean (SD)", "setting": "[2]; [17]", "value": "−0.209 (0.8649) %"}, {"measurement": "Brain volume, Percent change from baseline to Month 6, Median", "setting": "[2]; [17]", "value": "−0.120", "unit": "%"}, {"measurement": "Reduction in atrophy rate versus placebo", "setting": "[2]; [18]", "value": 30, "unit": "%"}, {"measurement": "Reduction in brain volume versus placebo group", "setting": "[2]; [18]", "value": "significantly less reduction in brain volume than those in the placebo group"}]}]}
